Source: the supplement of paper PMC10307832

What follows are cell lines tested with CC1=CC(=CC=C1)NC2=NC(=CS2)C3=CC=NC=C3 + CS(=O)(=O)CCNCc1ccc(-c2ccc3ncnc(Nc4ccc(OCc5cccc(F)c5)c(Cl)c4)c3c2)o1 [Lapatinib] (partner 2 µM) (assay: relative viability (nuclei count vs DMSO), 5 days (fraction); higher = more cells survive). Conditions: first compound 0.08 µM.
Summary of the method: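 Each reported value is a median over duplicate plates. It expresses relative viability: treated-well nuclei count divided by vehicle-well nuclei count. Lung cancer cell lines in 1536-well plates were dosed by pin tool a day after seeding, alone with one drug or with a fixed anchor-drug dose plus five library-drug doses (not always all listed) in √10 steps, and nuclei were counted after 5 days.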
LXF-289 gave a relative viability of 0.815.
BEN showed a relative viability of 0.733.
With HARA the relative viability was 0.483.
In the case of HCC-78, the relative viability is reported as 0.708.
NCI-H2023 showed a relative viability of 0.661.
Cell Line A-427 has a relative viability of 0.972.
Work on NCI-H460 yielded a relative viability of 0.875.
NCI-H727 gave a relative viability of 0.489.
Work on NCI-H1755 yielded a relative viability of 1.01.
NCI-H520 was tested, and the relative viability was 0.883.
For NCI-H2405, the relative viability was 0.853.
SW 1573 was tested, and the relative viability was 1.13.
In the case of 201T, the relative viability is reported as 0.982.
NCI-H1975 gave a relative viability of 0.723.
Cell Line HCC-827 has a relative viability of 0.204.
NCI-H2347 was tested, and the relative viability was 0.731.
In the case of NCI-H1355, the relative viability is reported as 0.723.
In the case of NCI-H650, the relative viability is reported as 0.708.
Work on CAL-12T yielded a relative viability of 0.534.
NCI-H1666 showed a relative viability of 0.245.
EPLC-272H gave a relative viability of 0.831.
NCI-H23 showed a relative viability of 0.971.
For NCI-H1915, the relative viability was 0.91.
Cell Line NCI-H1437 has a relative viability of 0.772.
NCI-H322M gave a relative viability of 0.538.
Work on NCI-H1563 yielded a relative viability of 0.912.
In the case of NCI-H1792, the relative viability is reported as 0.885.
For NCI-H2085, the relative viability was 0.658.
HCC-15 showed a relative viability of 0.809.
NCI-H1944 showed a relative viability of 0.707.
For PC-3 [JPC-3], the relative viability was 0.36.
Work on EKVX yielded a relative viability of 0.182.
LC-2-ad showed a relative viability of 0.953.

Same assay, conditions: first compound 0.253 µM
LXF-289 gave a relative viability of 0.93.
In the case of BEN, the relative viability is reported as 0.62.
Cell Line HARA has a relative viability of 0.641.
HCC-78 gave a relative viability of 0.528.
NCI-H2023 gave a relative viability of 0.698.
A-427 showed a relative viability of 1.09.
NCI-H460 was tested, and the relative viability was 0.901.
NCI-H727 gave a relative viability of 0.777.
For NCI-H1755, the relative viability was 1.04.
NCI-H520 gave a relative viability of 0.827.
NCI-H2405 was tested, and the relative viability was 1.
Work on SW 1573 yielded a relative viability of 0.977.
In the case of 201T, the relative viability is reported as 0.956.
Work on NCI-H1975 yielded a relative viability of 0.821.
HCC-827 was tested, and the relative viability was 0.187.
For NCI-H2347, the relative viability was 0.767.
NCI-H1355 was tested, and the relative viability was 0.713.
For NCI-H650, the relative viability was 0.815.
With NCI-H1666 the relative viability was 0.24.
For NCI-H23, the relative viability was 1.07.
Cell Line NCI-H1915 has a relative viability of 0.892.
NCI-H1437 gave a relative viability of 0.626.
Cell Line NCI-H322M has a relative viability of 0.518.
Cell Line NCI-H1563 has a relative viability of 0.64.
NCI-H1792 showed a relative viability of 0.659.
In the case of NCI-H2085, the relative viability is reported as 0.639.
HCC-15 gave a relative viability of 0.841.
NCI-H1944 gave a relative viability of 0.783.
For PC-3 [JPC-3], the relative viability was 0.375.
EKVX gave a relative viability of 0.189.
LC-2-ad showed a relative viability of 0.86.

Same assay, conditions: first compound 0.8 µM
With LXF-289 the relative viability was 0.938.
For BEN, the relative viability was 0.498.
For HARA, the relative viability was 0.509.
For HCC-78, the relative viability was 0.862.
Work on LCLC-97TM1 yielded a relative viability of 1.04.
Work on NCI-H2023 yielded a relative viability of 0.771.
A-427 was tested, and the relative viability was 1.03.
Cell Line NCI-H460 has a relative viability of 0.887.
For NCI-H727, the relative viability was 0.674.
For NCI-H1755, the relative viability was 0.843.
NCI-H520 was tested, and the relative viability was 0.932.
NCI-H2405 was tested, and the relative viability was 0.919.
SW 1573 showed a relative viability of 1.15.
201T showed a relative viability of 0.97.
With NCI-H1975 the relative viability was 0.657.
HCC-827 gave a relative viability of 0.191.
Cell Line NCI-H2347 has a relative viability of 0.635.
For NCI-H1355, the relative viability was 0.652.
In the case of NCI-H650, the relative viability is reported as 1.32.
CAL-12T gave a relative viability of 0.649.
NCI-H1666 showed a relative viability of 0.256.
Work on EPLC-272H yielded a relative viability of 0.867.
For NCI-H23, the relative viability was 1.01.
In the case of NCI-H1915, the relative viability is reported as 1.01.
Cell Line NCI-H1437 has a relative viability of 0.684.
Cell Line NCI-H322M has a relative viability of 0.519.
With NCI-H1563 the relative viability was 0.912.
NCI-H1792 was tested, and the relative viability was 0.772.
In the case of NCI-H2085, the relative viability is reported as 0.707.
HCC-15 was tested, and the relative viability was 0.848.
NCI-H1944 showed a relative viability of 0.812.
For PC-3 [JPC-3], the relative viability was 0.453.
EKVX was tested, and the relative viability was 0.206.
LC-2-ad was tested, and the relative viability was 0.948.

Same assay, conditions: first compound 2.53 µM
With LXF-289 the relative viability was 0.823.
BEN gave a relative viability of 0.669.
With HARA the relative viability was 0.474.
HCC-78 gave a relative viability of 0.623.
LCLC-97TM1 was tested, and the relative viability was 1.03.
Cell Line NCI-H2023 has a relative viability of 0.749.
For NCI-H460, the relative viability was 1.11.
In the case of NCI-H727, the relative viability is reported as 0.706.
In the case of NCI-H1755, the relative viability is reported as 0.902.
NCI-H520 showed a relative viability of 0.777.
NCI-H2405 was tested, and the relative viability was 0.936.
SW 1573 showed a relative viability of 1.38.
201T gave a relative viability of 0.767.
Cell Line NCI-H1975 has a relative viability of 0.651.
Work on HCC-827 yielded a relative viability of 0.187.
NCI-H2347 was tested, and the relative viability was 0.95.
NCI-H1355 gave a relative viability of 0.656.
CAL-12T was tested, and the relative viability was 0.608.
For NCI-H1666, the relative viability was 0.283.
In the case of NCI-H23, the relative viability is reported as 1.
For NCI-H1915, the relative viability was 0.876.
With NCI-H1437 the relative viability was 0.479.
Work on NCI-H322M yielded a relative viability of 0.572.
With NCI-H1563 the relative viability was 0.761.
For NCI-H1792, the relative viability was 0.722.
With NCI-H2085 the relative viability was 0.67.
HCC-15 showed a relative viability of 0.845.
Cell Line NCI-H1944 has a relative viability of 0.626.
In the case of PC-3 [JPC-3], the relative viability is reported as 0.362.
For EKVX, the relative viability was 0.163.
LC-2-ad was tested, and the relative viability was 0.853.

Same assay, conditions: first compound 8 µM
LXF-289 was tested, and the relative viability was 0.807.
BEN was tested, and the relative viability was 0.741.
HARA showed a relative viability of 0.527.
HCC-78 was tested, and the relative viability was 0.673.
LCLC-97TM1 was tested, and the relative viability was 1.27.
With NCI-H2023 the relative viability was 0.473.
With A-427 the relative viability was 0.892.
In the case of NCI-H460, the relative viability is reported as 0.692.
With NCI-H727 the relative viability was 0.668.
NCI-H1755 gave a relative viability of 0.707.
Work on NCI-H520 yielded a relative viability of 0.954.
Work on NCI-H2405 yielded a relative viability of 0.813.
With SW 1573 the relative viability was 1.08.
201T showed a relative viability of 0.752.
With NCI-H1975 the relative viability was 0.544.
HCC-827 gave a relative viability of 0.179.
NCI-H2347 showed a relative viability of 0.757.
NCI-H1355 showed a relative viability of 0.651.
Cell Line NCI-H650 has a relative viability of 0.975.
Cell Line CAL-12T has a relative viability of 0.678.
In the case of NCI-H1666, the relative viability is reported as 0.241.
For EPLC-272H, the relative viability was 0.908.
Cell Line NCI-H23 has a relative viability of 0.894.
Work on NCI-H1915 yielded a relative viability of 0.823.
Cell Line NCI-H1437 has a relative viability of 0.545.
For NCI-H322M, the relative viability was 0.662.
In the case of NCI-H1563, the relative viability is reported as 0.634.
NCI-H1792 showed a relative viability of 0.866.
NCI-H2085 showed a relative viability of 0.674.
HCC-15 gave a relative viability of 0.739.
NCI-H1944 showed a relative viability of 0.613.
In the case of PC-3 [JPC-3], the relative viability is reported as 0.467.
